Experiments:
Type in all cases: cell-based
[1] = tested on: TM3 mouse Leydig cell line; test: cDNA microarray comparison of transcription, 20HE vs methandrostenolone, TM3 cells; conditions: 18 hours
Protocol: (§1) A transcriptome approach utilizing cDNA microarray was implemented to observe the unique effects of ecdysteroids. Microarray analyses was developed and implemented to discern the transcriptional differences between ecdysteroids and anabolic steroids.
(§2) A mouse Leydig cell line, TM3, (ATCC) was seeded between 5 and 20 passages at a density of 10^5 cells/cm^2 onto 10 cm tissue culture plates. The cells were grown in F12/DME media supplemented with 5% horse serum, 2.5% fetal bovine serum, 100 U/ml penicillin, and 100 μg/ml streptomycin.
(§3) Cells were grown for 48 hours in 5% CO2 at 37° C. until they approached 80% confluency. Cells were washed with serum free DMEM and treated with either 1 μM […] (20HE), or methandrostenolone (synthetic anabolic steroid). Both compounds were dissolved in 70% ethanol and added to serum free media. Cells were incubated after treatment for 18 hours before RNA extraction.
(§4) RNA was extracted and purified from C2C12 myoblasts and TM3 Leydig tumor line cells using an RNeasy kit according to the manufacturer's instructions (Qiagen). RNA concentration and purity were assessed using a spectrophotometer. All RNA samples used had 260/280 ratios greater than 1.9.
(§5) A collection of 21,900 oligonucleotides was purchased from Compugen, Inc. Microarrays were printed on poly-L-lysine-coated glass slides using an OmniGrid microarrayer (GeneMachines, San Carlos, Calif.) and quill-type printing pins (Telichem, Sunnyvale, Calif.) following standard procedures. Fluorescent probes were prepared from 5 μg of total cellular RNA using the Genisphere 3DNA dendrimer system (Genisphere, Inc., Montvale, N.J.). Two separate microarrays, one for each cell line, were run. The ecdysone treated RNA sample was labeled with Cy3 and the methandrostenelone treated RNA sample was labeled with Cy5 in a parallel reaction, mixed, and hybridized to the chips. Automated microarray hybridization and washing were performed using a Ventana Discovery System. The sequence-tagged target was hybridized for 12 hours at 58° C., and microarrays were washed twice in […] for 10 minutes at 55° C. and once in […] for 2 minutes at 42° C. Florescent dendrimer was then applied and incubated at 55° C. for 2 hours. The microarrays were then washed with […] and spin-dried, followed by scanning on an Axon GenePix 4000B. Image files were processed using Axon GenePix 4.0 software, resulting in text files containing median fluorescence intensities as well as median local backgrounds. Normalized data were imported along with spot flag information into GeneSpring where the ratios were calculated.

[2] = tested on: C2C12 mouse skeletal muscle cell line; test: cDNA microarray comparison of transcription, 20HE vs methandrostenolone, C2C12 cells; conditions: 18 hours
Protocol: as §1
(§6) A mouse skeletal muscle cell line, C2C12, (ATCC) was seeded between 4 and 20 passages at a density of 10^5 cells/cm^2 onto 10 cm tissue culture plates. The cells were grown in DMEM supplemented with 10% Fetal Bovine Serum, 10 mM HEPES, 6 mM Glutamine, 1 mM pyruvate, 100 U/ml penicillin, and 100 ug/ml streptomycin.
as §3, §4, §5

mouse growth hormone [3] = test: Real Time RT-PCR of growth hormone expression in TM3 cells; conditions: for effect on growth hormone expression (in words): TM3; for Growth Hormone Expression relative to Control: TM3, 1 μM; for change in growth hormone expression over time (in words): TM3, treated 20 minutes to 24 hours
Protocol: as §2, §3
(§7) Selected microarray results were verified by comparison with mRNA levels obtained by Real Time reverse transcription PCR (qRT-PCR). Selected gene-specific primer pairs were designed for the mouse growth hormone and glyceraldehyde-3-phosphate dehydrogenase genes using the Primer Express software, as shown in Table 3. Total RNA was isolated, DNase I-treated, and first-strand cDNA was synthesized using Stratascript reverse transcriptase with random primers. The PCR reactions were carried out using 500 ng of cDNA, 150 nM of each primer, and SYBR Green master mix in 25 μL reactions. Levels of quantitative reverse transcription product were measured using SYBR Green fluorescence collected during real-time PCR on a Stratagene MXP3000 sequence detection system. A control cDNA dilution series was created for each gene to establish a standard curve. Reverse transcriptase was excluded from control samples to identify potential genomic contamination. Each reaction was subjected to melting point analysis to confirm single amplified products. The data generated from each PCR were analyzed using MXP 3000 software.
(§8) Quantitative real time PCR was used to verify the microarray results for growth hormone. RNA samples from each treatment were reverse-transcribed into cDNA and amplified using real time PCR. Values for growth hormone were normalized to values obtained for the housekeeping gene, glyceraldehyde-3-phosphate dehydrogenase, and the ratios of the two treatments were calculated. In both the C2C12 and TM3 cell lines differential expression was qualitatively confirmed.
(§9) Using the ΔΔCt method, relative expression was calculated.
To further investigate the effects of 20-HE, the TM3 leydig cell line was treated for varying intervals, from 20 minutes to 24 hours, with either 20-HE or methandrostenolone. Growth hormone expression was than analyzed using real time PCR as mentioned earlier.

mouse growth hormone [4] = test: Real Time RT-PCR of growth hormone expression in C2C12 cells; conditions: for effect on growth hormone expression (in words): C2C12; for Growth Hormone Expression relative to Control: C2C12, 1 μM, Real Time RT-PCR, normalized to GAPDH
Protocol: as §6, §3, §7, §8, §9

[5] = Real Time RT-PCR, normalized to GAPDH

CC(C)(O)CC[C@@H](O)[C@](C)(O)[C@H]1CC[C@@]2(O)C3=CC(=O)[C@@H]4C[C@@H](O)[C@@H](O)C[C@]4(C)[C@H]3CC[C@]12C [20-Hydroxyecdysone, 20-hydroxyecdysone]
20E/D Expr: Growth hormone ([1]; TM3, 1 μM, expression ratio 20HE to methandrostenolone, LL 14599): 7.006 | 20E/D Expr: Insulin II ([1]; TM3, 1 μM, expression ratio 20HE to methandrostenolone, LL 16334): 0.262 | 20E/D Expr: Nuclear receptor subfamily 4, group A, member 2 ([1]; TM3, 1 μM, expression ratio 20HE to methandrostenolone, LL 18227): 0.010 | 20E/D Expr: Chemokine (C-C motif) ligand 20 ([1]; TM3, 1 μM, expression ratio 20HE to methandrostenolone, LL 20297): 11.89 | 20E/D Expr: Signal transducer and activator of transcription 1 ([1]; TM3, 1 μM, expression ratio 20HE to methandrostenolone, LL 20846): 0.052 | 20E/D Expr: Steroid sulfatase ([1]; TM3, 1 μM, expression ratio 20HE to methandrostenolone, LL 20905): 4.611 | 20E/D Expr: Insulin receptor-related receptor ([1]; TM3, 1 μM, expression ratio 20HE to methandrostenolone, LL 23920): 0.022 | 20E/D Expr: Osteomodulin ([1]; TM3, 1 μM, expression ratio 20HE to methandrostenolone, LL 27047): 0.010 | 20E/D Expr: Ndufs3 ([1]; TM3, 1 μM, expression ratio 20HE to methandrostenolone, LL 68349): 4.741 | genes down-regulated more than 2 fold as compared to methandrostenolone ([1]; TM3, microarray, 1 μM): 341 genes | genes up-regulated more than 2 fold as compared to methandrostenolone ([1]; TM3, microarray, 1 μM): 287 genes | increase of growth hormone expression more than methandrostenolone ([1]; TM3, microarray, 1 μM): 7.0 times | 20E/D Expr: Annexin A5 ([2]; C2C12, 1 μM, expression ratio 20HE to methandrostenolone, LL 11747): 11.90 | 20E/D Expr: Cholecystokinin ([2]; C2C12, 1 μM, expression ratio 20HE to methandrostenolone, LL 12424): 0.010 | 20E/D Expr: Fas death domain-associated protein ([2]; C2C12, 1 μM, expression ratio 20HE to methandrostenolone, LL 13163): 0.010 | 20E/D Expr: Fibroblast growth factor 11 ([2]; C2C12, 1 μM, expression ratio 20HE to methandrostenolone, LL 14166): 0.010 | 20E/D Expr: Growth hormone ([2]; C2C12, 1 μM, expression ratio 20HE to methandrostenolone, LL 14599): 3.163 | 20E/D Expr: Histocompatibility 2, D region locus 1 ([2]; C2C12, 1 μM, expression ratio 20HE to methandrostenolone, LL 14964): 6.771 | 20E/D Expr: Hexokinase 2 ([2]; C2C12, 1 μM, expression ratio 20HE to methandrostenolone, LL 15277): 0.010 | 20E/D Expr: mago-nashi homolog, proliferation-associated ([2]; C2C12, 1 μM, expression ratio 20HE to methandrostenolone, LL 17149): 3.708 | 20E/D Expr: Insulin receptor-related receptor ([2]; C2C12, 1 μM, expression ratio 20HE to methandrostenolone, LL 23920): 0.020 | genes down-regulated more than two fold as compared to methandrostenolone ([2]; C2C12, microarray, 1 μM): 479 genes | genes up-regulated more than 2-fold as compared to methandrostenolone ([2]; C2C12, microarray, 1 μM): 278 genes | increase of growth hormone expression more than methandrostenolone ([2]; C2C12, microarray, 1 μM): 3.2 times | effect on growth hormone expression (in words) (mouse growth hormone [3]): increased expression of GH | Growth Hormone Expression relative to Control (mouse growth hormone [3]; [5]): 7.1 ± 1.2 | Growth Hormone Expression relative to Control (mouse growth hormone [3]; incubation time 20 m): 0.9 | Growth Hormone Expression relative to Control (mouse growth hormone [3]; incubation time 45 m): 3.5 | Growth Hormone Expression relative to Control (mouse growth hormone [3]; incubation time 1 hr): 7.3 | Growth Hormone Expression relative to Control (mouse growth hormone [3]; incubation time 2 hr): 6.9 | Growth Hormone Expression relative to Control (mouse growth hormone [3]; incubation time 4 hr): 7.2 | Growth Hormone Expression relative to Control (mouse growth hormone [3]; incubation time 24 hr): 7 | change in growth hormone expression over time (in words) (mouse growth hormone [3]): increased growth hormone expression over time, beginning after 45 minute and remaining increased after 24 hours | effect on growth hormone expression (in words) (mouse growth hormone [4]): increased expression of GH | Growth Hormone Expression relative to Control (mouse growth hormone [4]): 3.9 ± 0.9

C[C@]12C=CC(=O)C=C1CC[C@@H]1[C@@H]2CC[C@@]2(C)[C@H]1CC[C@]2(C)O [Methandrostenolone, methandrostenolone, reference compound]
effect on growth hormone expression (in words) (mouse growth hormone [3]): little or no effect | Growth Hormone Expression relative to Control (mouse growth hormone [3]; [5]): 2.3 ± 1.4 | Growth Hormone Expression relative to Control (mouse growth hormone [3]; incubation time 20 m): 1.2 | Growth Hormone Expression relative to Control (mouse growth hormone [3]; incubation time 45 m): 1.9 | Growth Hormone Expression relative to Control (mouse growth hormone [3]; incubation time 1 hr): 2.5 | Growth Hormone Expression relative to Control (mouse growth hormone [3]; incubation time 2 hr): 1.7 | Growth Hormone Expression relative to Control (mouse growth hormone [3]; incubation time 4 hr): 2.1 | Growth Hormone Expression relative to Control (mouse growth hormone [3]; incubation time 24 hr): 2.3 | change in growth hormone expression over time (in words) (mouse growth hormone [3]): very little change | effect on growth hormone expression (in words) (mouse growth hormone [4]): little or no effect | Growth Hormone Expression relative to Control (mouse growth hormone [4]): 0.8 ± 0.5

From US8377915B2, “Methods for treating or preventing disorders using ecdysteroid compositions” (Rutgers, The State University of New Jersey, priority 2006, dated 2013)
